Values after ≈ are worked out from the molar mass of the structure shown.
Assays:
physchem [1] = settings: octanol/water, pH 7.4
Staphylococcus aureus [2] = experiment: microbe, parasite or virus in culture; settings: ATCC 49951
Staphylococcus aureus [3] = experiment: microbe, parasite or virus in culture; settings: ATCC 49951; remark: listed apart in the source
physchem [4] = experiment: physchem

Compound	logD (physchem [1])	MIC (Staphylococcus aureus [2]) [µg/mL]	MIC (Staphylococcus aureus [3]) [µg/mL]	pKa (physchem [4])
C[C@H]1COc2c(N3CC[C@@H](C4(N)CC4)C3)c(F)c(C#N)c3cc(C(=O)O)c(=O)n1c23	-1.86	0.125 (≈ 0.303 µM)	1 (≈ 2.42 µM)	
Cc1c(N2CC[C@@H](C3(N)CC3)C2)c(F)cc2cc(-c3nnco3)c(=O)n(C3CC3)c12		0.125 (≈ 0.305 µM)	0.125 (≈ 0.305 µM)	8.3
C[C@H]1COc2c(N3CCC(=C(Cl)CN)CC3)c(F)cc3cc(C(=O)O)c(=O)n1c23	-0.39	4 (≈ 9.48 µM)	> 32	
C[C@H]1COc2c(N3CC[C@@H](C4(N)CC4)C3)c(F)c(N)c3cc(C(=O)O)c(=O)n1c23	-0.97	0.5 (≈ 1.24 µM)	8 (≈ 19.9 µM)	
Cc1c(N2CC[C@@H](C3(N)CC3)C2)c(F)cc2cc(-c3noc(=O)[nH]3)c(=O)n(C3CC3)c12	-0.32	0.125 (≈ 0.294 µM)	0.125 (≈ 0.294 µM)	5.4
C[C@H]1COc2c(N3CC[C@@H](C4(N)CC4)C3)c(C#N)cc3cc(C(=O)O)c(=O)n1c23	-1.77	0.25 (≈ 0.634 µM)	4 (≈ 10.1 µM)	
C[C@H]1COc2c(N3CC[C@@H](C4(N)CC4)C3)c(Cl)cc3cc(C(=O)O)c(=O)n1c23	-1.12	2 (≈ 4.95 µM)	32 (≈ 79.2 µM)	
C[C@H]1COc2c(N3CC[C@H](O)C3)c(F)cc3cc(C(=O)O)c(=O)n1c23	-0.46	0.5 (≈ 1.44 µM)	> 32	5.2
Cc1c(N2CC[C@@H](C3(N)CC3)C2)c(F)cc2cc(-c3n[nH]c(=O)o3)c(=O)n(C3CC3)c12		0.125 (≈ 0.294 µM)	0.06 (≈ 0.141 µM)	7.2
C[C@H]1COc2c(N3CC4C[C@H](F)C[C@@H](N)[C@H]4C3)c(F)cc3cc(C(=O)O)c(=O)n1c23 (single isomer, unassigned)	-1.04	≤ 0.03	0.06 (≈ 0.143 µM)	5.07
Cc1c(N2CC[C@@H](C3(N)CC3)C2)c(F)cc2cc(C#N)c(=O)n(C3CC3)c12	1.19	0.06 (≈ 0.164 µM)	0.06 (≈ 0.164 µM)	8.4
C[C@H]1COc2c(N3CC[C@@H](C4(N)CC4)C3)cc(F)c3cc(C(=O)O)c(=O)n1c23	-0.4	0.25 (≈ 0.645 µM)	2 (≈ 5.16 µM)	
Cc1c(N2CCC(C3(N)CC3)C2)c(F)cc2c(-c3cc(O)no3)cc(=O)n(C3CC3)c12 (stereo unspecified)	0.29	1 (≈ 2.36 µM)	2 (≈ 4.71 µM)	4.7
Cc1c(N2CCC(C3(N)CC3)C2)c(F)cc2c(-c3n[nH]c(=O)o3)cc(=O)n(C3CC3)c12 (stereo unspecified)		0.5 (≈ 1.18 µM)	1 (≈ 2.35 µM)	6.4
C[C@H]1COc2c(N3CC4[C@H](C3)[C@H](N)CCC4(F)F)c(F)cc3cc(C(=O)O)c(=O)n1c23 (single isomer, unassigned)	-0.78	≤ 0.03	0.125 (≈ 0.286 µM)	5.1
C[C@H]1COc2c(N3CC[C@@H](C4(N)CC4)C3)c(F)c(F)c3cc(C(=O)O)c(=O)n1c23	-0.85	0.06 (≈ 0.148 µM)	1 (≈ 2.47 µM)	
C[C@H]1COc2c(N3CC[C@H](N)C3)c(F)cc3cc(C(=O)O)c(=O)n1c23	< -2	2 (≈ 5.76 µM)	> 32	4.8
CO[C@@H]1CC2CN(c3c(F)cc4cc(C(=O)O)c(=O)n5c4c3OC[C@@H]5C)C[C@@H]2[C@H](N)C1 (single isomer, unassigned)	-1.5	≤ 0.03	0.25 (≈ 0.579 µM)	5.2
CO[C@@H]1CC[C@@H](N)[C@H]2CN(c3c(F)cc4cc(C(=O)O)c(=O)n5c4c3OC[C@@H]5C)CC12 (single isomer, unassigned)	-1.28	≤ 0.03	0.25 (≈ 0.579 µM)	4.9
C[C@H]1COc2c(N3CC4OCC[C@@H](N)[C@H]4C3)c(F)cc3cc(C(=O)O)c(=O)n1c23 (single isomer, unassigned)	-1.66	0.125 (≈ 0.31 µM)	1 (≈ 2.48 µM)	5.2

Compound	logD (physchem [1])	MIC (Staphylococcus aureus [2]) [µg/mL]	MIC (Staphylococcus aureus [3]) [µg/mL]	pKa (physchem [4])
Cc1c(N2CCC(C3(N)CC3)C2)c(F)cc2c(-c3noc(=S)[nH]3)cc(=O)n(C3CC3)c12 (stereo unspecified)		4 (≈ 9.06 µM)	4 (≈ 9.06 µM)	2
C[C@H]1Cc2c(N3CC[C@@H](C4(N)CC4)C3)c(F)cc3cc(C(=O)O)c(=O)n1c23	-0.51	0.25 (≈ 0.673 µM)	8 (≈ 21.5 µM)	
C[C@H]1COc2c(N3C[C@H]4[C@H](C3)OCC[C@@H]4N)c(F)cc3cc(C(=O)O)c(=O)n1c23	-1.72	≤ 0.03	1 (≈ 2.48 µM)	4.8
Cc1c(N2CCC(C3(N)CC3)C2)c(F)cc2c(Cc3cc(O)no3)cc(=O)n(C3CC3)c12 (stereo unspecified)	-0.9	8 (≈ 18.2 µM)	8 (≈ 18.2 µM)	3.9
C[C@H]1COc2c(N3CC[C@@H](C4(N)CC4)C3)cc(C#N)c3cc(C(=O)O)c(=O)n1c23	-0.55	0.25 (≈ 0.634 µM)	2 (≈ 5.07 µM)	
Cc1c(N2CC[C@@H](C3(N)CC3)C2)c(F)cc2cc(-c3ncon3)c(=O)n(C3CC3)c12	1.46	0.25 (≈ 0.611 µM)	0.5 (≈ 1.22 µM)	8.4
C[C@H]1COc2c(N3CC[C@@H](C4(N)CCC4)C3)c(F)cc3cc(C(=O)O)c(=O)n1c23	-1.42	0.125 (≈ 0.311 µM)	2 (≈ 4.98 µM)	4.9
COc1cc2cc(C(=O)O)c(=O)n3c2c(c1N1CC[C@@H](C2(N)CC2)C1)OC[C@@H]3C	-1.22	32 (≈ 80.1 µM)	> 32	
C[C@H]1CCOc2c(N3CC[C@@H](C4(N)CC4)C3)c(F)cc3cc(C(=O)O)c(=O)n1c23	0.01	0.25 (≈ 0.623 µM)	8 (≈ 19.9 µM)	
C[C@H]1COc2c(N3CC[C@@H](C4(N)CC4)C3)cc(Cl)c3cc(C(=O)O)c(=O)n1c23			1 (≈ 2.48 µM)	
C[C@@H]1COc2c(N3CC[C@@H](C4(N)CC4)C3)c(F)cc3cc(C(=O)O)c(=O)n1c23	-0.92	16 (≈ 41.3 µM)	> 32	
C[C@H]1COc2c(N3CC4C[C@@H](OC(F)F)C[C@@H](N)[C@H]4C3)c(F)cc3cc(C(=O)O)c(=O)n1c23 (single isomer, unassigned)	-0.4	0.06 (≈ 0.128 µM)	1 (≈ 2.14 µM)	5.2
C[C@H]1COc2c(N3CC[C@@H](C4(N)CC4)C3)ccc3cc(C(=O)O)c(=O)n1c23			4 (≈ 10.8 µM)	
C[C@H]1COc2c(N3CCN(C)CC3)c(F)cc3cc(C(=O)O)c(=O)n1c23	-1.99	16 (≈ 44.3 µM)	> 32	4.5
C[C@H]1COc2c(N3CC[C@@H](C4(N)CC4)C3)c(F)c(Cl)c3cc(C(=O)O)c(=O)n1c23	-0.46	≤ 0.03	0.5 (≈ 1.19 µM)	
Cc1c(N2CC[C@@H](C3(N)CC3)C2)c(F)cc2cc(C(N)=O)c(=O)n(C3CC3)c12		0.25 (≈ 0.65 µM)	1 (≈ 2.6 µM)	8.4
C[C@H]1CCc2c(N3CC[C@@H](C4(N)CC4)C3)c(F)cc3cc(C(=O)O)c(=O)n1c23	-0.27	0.06 (≈ 0.156 µM)	1 (≈ 2.59 µM)	
C[C@H]1COc2c(N3C[C@@H]4CCCN[C@@H]4C3)c(F)cc3cc(C(=O)O)c(=O)n1c23	-1.46	1 (≈ 2.58 µM)	32 (≈ 82.6 µM)	5
Cc1c(N2CCC(C3(N)CC3)C2)c(F)cc2c(Cc3noc(=O)[nH]3)cc(=O)n(C3CC3)c12 (stereo unspecified)	-0.74	4 (≈ 9.1 µM)	32 (≈ 72.8 µM)	5.1
